BindingDB's records for doi:10.3109/14756366.2013.776556 (King Fahd University of Petroleum & Minerals, 2014)

Columns and labels:
[1] = molecular target: D(2) dopamine receptor (Homo sapiens, UniProt P14416); assay: Binding Affinity Assay; settings: pH 7.4; 25 °C
Description: The samples were incubated for 120 min at 25 °C, then the incubation was stopped by rapid filtration through Whatman GF/C glass fiber filters (presoaked in 0.5% polyethylenimine for 60 min). The filters were washed three times in 1mL of ice-cold 50mM Tris, 0.9% NaCl, pH 7.4. Nonspecific binding was determined in the presence of 10 μM haloperidol. The radioactivity bound to the filters was measured by liquid scintillation using a LS6500 Multi-Purpose scintillation Counter, Beckman.

[2] = molecular target: T1, 5-hydroxytryptamine receptor 1A (Homo sapiens, UniProt P08908); assay: Binding Affinity Assay; settings: pH 7.4; 37 °C
T1 sequence (P08908 whole entry): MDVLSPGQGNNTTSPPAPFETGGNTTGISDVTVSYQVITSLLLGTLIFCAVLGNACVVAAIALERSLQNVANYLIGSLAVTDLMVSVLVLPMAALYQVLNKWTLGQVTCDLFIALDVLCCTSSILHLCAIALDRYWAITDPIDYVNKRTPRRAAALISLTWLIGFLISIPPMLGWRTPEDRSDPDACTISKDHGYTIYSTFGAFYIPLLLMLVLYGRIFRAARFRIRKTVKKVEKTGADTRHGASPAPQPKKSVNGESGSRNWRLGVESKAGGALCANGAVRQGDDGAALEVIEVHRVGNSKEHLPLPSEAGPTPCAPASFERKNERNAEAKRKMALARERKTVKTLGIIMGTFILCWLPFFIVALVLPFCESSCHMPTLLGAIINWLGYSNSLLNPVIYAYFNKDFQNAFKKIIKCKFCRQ
Description: Human-cloned 5-HT1A serotonin receptors stably expressed in HEK293-EBNA cells (Perkin-Elmer, Waltham, MA) were radiolabeled with 1.0nM [3H]-8-OH-DPAT [Fargin et al., J. Biol. Chem., 264:[…]]. Samples containing 32 μg of membrane protein, different concentrations of each compound ranging from 0.1nM to 10 μM were incubated in a final volume of 500 μL of 50mM Tris-HCl pH 7.4, 5mM MgSO4for 120 min at 37 °C. After this incubation time, samples were filtered through Whatman GF/C glass microfiber filters presoaked in polyethylenimine 0.5% for at least 30 min prior to use. The filters were washed twice with 1mL of ice-cold buffer (50mM Tris-HCl, pH 7.4). Nonspecific binding was determined in the presence of 10 μM 5-HT. The radioactivity bound to the filters was measured by liquid scintillation using the LS6500 Multi-Purpose scintillation Counter, Beckman.

Sequence of D(2) dopamine receptor (P14416 whole entry): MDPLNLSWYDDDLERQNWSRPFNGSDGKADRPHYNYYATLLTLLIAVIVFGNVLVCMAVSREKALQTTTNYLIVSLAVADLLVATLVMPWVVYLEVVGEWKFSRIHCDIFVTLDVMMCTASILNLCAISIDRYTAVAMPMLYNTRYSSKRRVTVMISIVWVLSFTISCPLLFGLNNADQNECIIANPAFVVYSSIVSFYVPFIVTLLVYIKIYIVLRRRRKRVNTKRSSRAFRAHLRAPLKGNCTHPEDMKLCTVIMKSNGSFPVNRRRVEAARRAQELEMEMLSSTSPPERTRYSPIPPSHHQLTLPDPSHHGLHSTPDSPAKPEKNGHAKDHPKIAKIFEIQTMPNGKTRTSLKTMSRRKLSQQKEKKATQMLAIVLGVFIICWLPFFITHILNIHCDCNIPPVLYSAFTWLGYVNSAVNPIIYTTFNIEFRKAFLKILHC

Row | Ki [1] | Ki [2] | SMILES
1 | 10.4 nM | 3.1 nM | O=c1[nH]c2ccc(N3CCN(Cc4cccc(C5=CCCC5)c4)CC3)cc2[nH]1 [5-(4-(3-cyclopentenylbenzyl)piperazin-1-yl)-1H-benzo[d]imidazol-2(3H)-one (6e)]
2 | 12.6 nM | 5.3 nM | O=c1[nH]c2ccc(N3CCN(Cc4cncc(-c5ccccc5)c4)CC3)cc2[nH]1 [5-(4-((5-phenylpyridin-3-yl)methyl)piperazin-1-yl)-1H-benzo[d]imidazol-2(3H)-one (6c)]
3 | 34.4 nM | 16.2 nM | O=c1[nH]c2ccc(C3CCN(Cc4ccc(-c5ccc(F)cc5)cc4)CC3)cc2[nH]1 [5-(1-((4'-Fluorobiphenyl-4-yl)methyl)piperidin-4-yl)-1H-benzo[d]imidazol-2(3H)-one (5b)]
4 | 96.2 nM | 34.2 nM | O=c1[nH]c2ccc(C3CCN(Cc4ccc(-c5ccccc5)cc4)CC3)cc2[nH]1 [5-(1-(biphenyl-4-ylmethyl)piperidin-4-yl)-1H-benzo[d]imidazol-2(3H)-one (5a)]
5 | 42.2 nM | 46.3 nM | O=c1[nH]c2ccc(N3CCN(Cc4ccc(-c5ccccc5)cc4)CC3)cc2[nH]1 [5-(4-(biphenyl-4-ylmethyl)piperazin-1-yl)-1H-benzo[d]imidazol-2(3H)-one (6a)]
6 | 8.4 nM | 8.64 nM | Fc1ccc(-c2cncc(CN3CCN(c4cccc5c4OCCO5)CC3)c2)cc1 [1-(2,3-dihydro-1,4-benzodioxin-5-yl)-4-[[5-(4-fluorophenyl)pyridin-3-yl]methyl]piperazine]
7 | 82 nM | 11.4 nM | O=c1[nH]c2ccc(N3CCN(Cc4cncc(-c5ccc(F)cc5)c4)CC3)cc2[nH]1 [5-(4-((5-(4-fluorophenyl)pyridin-3-yl)methyl)piperazin-1-yl)-1H-benzo[d]imidazol-2(3H)-one (6d)]
8 | 62.6 nM | 27.2 nM | O=c1[nH]c2ccc(N3CCN(Cc4ccc(-c5ccc(F)cc5)cc4)CC3)cc2[nH]1 [5-(4-((4'-fluorobiphenyl-4-yl)methyl)piperazin-1-yl)-1H-benzo[d]imidazol-2(3H)-one (6b)]
9 | 24.6 nM | 9.42 nM | O=c1[nH]c2ccc(C3CCN(Cc4cncc(-c5ccc(F)cc5)c4)CC3)cc2[nH]1 [5-(1-((5-(4-Fluorophenyl)pyridin-3-yl)methyl)piperidin-4-yl)-1H-benzo[d]imidazol-2(3H)-one (5d)]
10 | 4.26 nM | 6.3 nM | O=c1[nH]c2ccc(C3CCN(Cc4cncc(C5=CCCC5)c4)CC3)cc2[nH]1 [5-(1-((5-cyclopentenylpyridin-3-yl)methyl)piperidin-4-yl)-1Hbenzo[d]imidazol-2(3H)-one (5f)]
11 | 3.1 nM | 1.7 nM | O=c1[nH]c2ccc(N3CCN(Cc4cncc(C5=CCCC5)c4)CC3)cc2[nH]1 [5-(4-((5-cyclopentenylpyridin-3-yl)methyl)piperazin-1-yl)-1H-benzo[d]imidazol-2(3H)-one (6f)]
12 | – | 7.19 nM | O=c1[nH]c2cccc(N3CCN(Cc4cccc(-c5ccccc5)c4)CC3)c2o1
13 | 18.5 nM | 6.72 nM | O=c1[nH]c2ccc(C3CCN(Cc4cncc(-c5ccccc5)c4)CC3)cc2[nH]1 [5-(1-((5-phenylpyridin-3-yl)methyl)piperidin-4-yl)-1H-benzo[d]imidazol-2(3H)-one (5c)]
14 | 8.12 nM | 1.2 nM | O=c1[nH]c2ccc(C3CCN(Cc4cccc(C5=CCCC5)c4)CC3)cc2[nH]1 [5-(1-(3-cyclopentenylbenzyl)piperidin-4-yl)-1H-benzo[d]imidazol-2(3H)-one (5e)]
